Laboratory results as given in patent US11267826B2, “Penicillin-binding protein inhibitors” (priority 2017, dated 2022).

How the values were obtained:
[1] = system: hyper-permeable E. coli 901C; assay: Broth microdilution MIC assay, hyper-permeable E. coli; assay type: cell-based; conditions: Escherichia coli, read-out: E. coli 901C MIC
How it was run: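 CLSI broth microdilution in cation-supplemented Mueller-Hinton broth; 2-fold serial compound dilutions inoculated at 5×10^5 CFU/mL from 3-5 h log-phase cultures. Plates incubated 16-20 hours at 37° C. MIC read visually as lowest concentration with no bacterial growth.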

[2] = system: E. coli DH5a harboring TEM-24; assay: Broth microdilution MIC, engineered E. coli expressing TEM-24; assay type: cell-based; conditions: Escherichia coli, read-out: MIC, β-lactamase TEM
Protocol: (§1) To determine the ability of test compounds to potentiate the inhibition of the growth of bacterial strains, classic cell based broth microdilution MIC assays were employed. MIC assays are performed according to CLSI methods except where otherwise noted (CLSI, 2011 and CLSI, 2009). The reference strain S. aureus ATCC 29213 and the hyper-permeable E. coli 901C were used to determine the ability of the PBP compounds to inhibit bacterial growth. Briefly, cryo-preserved bacterial cultures of clinical strains are streaked for isolation on appropriate agar medium, in this case Mueller Hinton II agar. Following incubation to allow formation of colonies these plates are sealed with parafilm and stored refrigerated for up to two weeks. For preparation of assay inocula and to ensure low variability, at least 5 colonies are picked from the agar plates with an inoculating loop and aseptically transferred to a culture tube containing 3 mL of Mueller-Hinton Broth (supplemented with divalent cations to required levels based on Manufacturers' certification). The broth culture is grown for 3-5 hours at 37° C. with shaking at 200 rpm. Meanwhile, 2-fold serial dilutions of test compounds are conducted in a 96 well plate with a final volume of 75 μL per well at 2-fold the final desired concentration. After the dilution plates are set up the growing cultures are then diluted in a cuvette containing MH II broth and the optical density is measured at 600 nm. Inocula are diluted such that 75 μL of this culture in Mueller-Hinton Broth results in a starting bacterial concentration of 5×10^5 CFU/mL when added to the dilution plates. The plates are incubated 16-20 hours at 37° C. The MIC is read visually as the lowest concentration well with no bacterial growth.
(§2) To determine if test compounds were affected by various known β-lactamases, the inhibition of the growth of engineered strains of Escherichia coli harboring select single β-lactamases were tested. […]

[3] = system: E. coli DH5a harboring KPC-2; assay: microbe, parasite or virus in culture; assay type: cell-based; conditions: Escherichia coli, read-out: MIC, β-lactamase KPC
Protocol: To determine the ability of test compounds to potentiate the inhibition of the growth of bacterial strains, classic cell based broth microdilution MIC assays were employed. MIC assays are performed according to CLSI methods except where otherwise noted (CLSI, 2011 and CLSI, 2009). The reference strain S. aureus ATCC 29213 and the hyper-permeable E. coli 901C were used to determine the ability of the PBP compounds to inhibit bacterial growth. Briefly, cryo-preserved bacterial cultures of clinical strains are streaked for isolation on appropriate agar medium, in this case Mueller Hinton II agar. Following incubation to allow formation of colonies these plates are sealed with parafilm and stored refrigerated for up to two weeks. For preparation of assay inocula and to ensure low variability, at least 5 colonies are picked from the agar plates with an inoculating loop and aseptically transferred to a culture tube containing 3 mL of Mueller-Hinton Broth (supplemented with divalent cations to required levels based on Manufacturers' certification). The broth culture is grown for 3-5 hours at 37° C. with shaking at 200 rpm. […] After the dilution plates are set up the growing cultures are then diluted in a cuvette containing MH II broth and the optical density is measured at 600 nm. […] The MIC is read visually as the lowest concentration well with no bacterial growth. […]

[4] = system: E. coli DH5a harboring VIM-2; assay: Broth microdilution MIC, engineered E. coli expressing VIM-2; assay type: cell-based; conditions: Escherichia coli, read-out: MIC, β-lactamase VIM
Protocol: as §1, §2

[5] = system: E. coli DH5a harboring NDM-1; assay: Broth microdilution MIC, engineered E. coli expressing NDM-1; assay type: cell-based; conditions: Escherichia coli, read-out: MIC, β-lactamase NDM
Protocol: as §1, §2

E. coli K12 PBP1b = target: T1, E. coli K12 PBP1b (Escherichia coli, UniProt P02919); assay: Competition binding assay using Bodipy-FL boronic acid probe (Example 125); conditions: Bodipy-FL boronic acid probe (Example 125) 30 μM, 10 minutes pre-incubation, 10 minutes reaction
T1 construct: endogenous in cells; host or cells: Escherichia coli K12, membrane protein fraction
Protocol: Penicillin binding proteins were isolated from Escherichia coli K12 by growth of Escherichia coli K12 from a single colony in 4 L of Luria-Bertani (LB) broth at 35° C. and 250 rpm to an OD600 nm of 0.5. The cells were harvested by centrifugation at 7,000×g for 10 min. at 4° C. Cells were resuspended and washed in 50 mM potassium phosphate pH 7.5. The cells were re-suspended in sonication buffer [50 mM Tris-HCl pH 7.5, 1 mM MgCl2, 1 mM beta-mercaptoethanol, and 5 μg/mL DNAse I] and sonicated by 4 passes of 30 seconds at 45 W on ice. The sample was clarified by centrifugation at 3,000×g to remove cell debris and unbroken cells and supernatant containing the membrane proteins was retained. The membrane proteins including the PBPs were further purified from soluble constituents by an ultracentrifugation step at 100,000×g for 30 min. at 4° C. The membrane proteins are washed twice with 10 mM sodium phosphate pH 7, resuspended in a volume of 5 mL, quantitated by BCA assay, adjusted to […] and frozen at −80° C. until use.
The adapted Bocillin FL competition binding method described herein incorporates a 15 min. pre-incubation of test compound with isolated PBPs to attempt to balance the difference in mechanism of inhibition between beta-lactams (largely irreversible covalent bond to active site Serine) and the boron-containing PBP inhibitor test compounds (reversible covalent bond to active site Serine). Briefly, 50 μL reactions consisted of 100 μg's of total membrane protein extracts containing PBPs incubated with a dilution series of test compound ranging from 0.005 μg/mL to 2,480 μg/mL in 10 mM sodium phosphate pH7 containing 350 mM NaCl. Thirty minute reactions at 35° C. were initiated by addition of […] Bocillin FL, quenched by addition of SDS-PAGE loading buffer containing sodium dodecyl sulfate (SDS) and heated for 15 minutes at 95° C. to denature proteins in preparation for SDS-polyacrylamide gel electrophoresis. The Bocillin FL labeled PBPs are then separated by SDS-PAGE in Novex NuPage 10% Bis-Tris pre-cast gels (Invitrogen). The SDS-PAGE gel, post-electrophoresis, is then washed in water to remove excess SDS for 10 minutes at room temperature and placed on the scanning bed of a GE Healthcare/Amersham Biosciences Storm 860 fluorescence scanner. The excitation wavelength is in the blue spectrum at 450 nm and the emission at 520 nm is captured by the instrument. Effective PBP inhibitors are detected by a reduction in Bocillin FL labeling of the particular PBP over the dose range of test compound in a dose-responsive manner. High molecular weight PBP 1a/1b are not resolved by these gels, thus we report HMW PBP binding results in μg/mL for PBPs 1a/1b combined as well as for PBP2 and PBP3.
To determine the ability of boronic acid-based test PBP inhibitors to bind Penicillin Binding Proteins (PBPs), a competition binding assay using a Bodipy-FL-labeled boronic acid PBP inhibitor (Example 125) was adapted from the classical method used to assess PBP potency of beta-lactams using Bocillin-FL (fluorescently-labeled penicillin V). The method is identical to that described in Example I for the Bocillin-FL competition binding assay with the following exceptions, the Bodipy-FL boronic acid probe (Example 125) is used at a final concentration of 30 μM, pre-incubation time of test compound with PBP enzymes is 10 minutes and reaction time is set for 10 minutes and reactions are prepared for SDS-PAGE analysis by simply adding SDS-containing loading buffer. Representative results are shown in Table 5, where A represents a potency of >1000 μg/mL, B represents a potency between 64 and 1000 μg/mL inclusive, and C represents a potency of <64 μg/mL. NT=Not Tested.

T1 sequence (P02919 whole entry): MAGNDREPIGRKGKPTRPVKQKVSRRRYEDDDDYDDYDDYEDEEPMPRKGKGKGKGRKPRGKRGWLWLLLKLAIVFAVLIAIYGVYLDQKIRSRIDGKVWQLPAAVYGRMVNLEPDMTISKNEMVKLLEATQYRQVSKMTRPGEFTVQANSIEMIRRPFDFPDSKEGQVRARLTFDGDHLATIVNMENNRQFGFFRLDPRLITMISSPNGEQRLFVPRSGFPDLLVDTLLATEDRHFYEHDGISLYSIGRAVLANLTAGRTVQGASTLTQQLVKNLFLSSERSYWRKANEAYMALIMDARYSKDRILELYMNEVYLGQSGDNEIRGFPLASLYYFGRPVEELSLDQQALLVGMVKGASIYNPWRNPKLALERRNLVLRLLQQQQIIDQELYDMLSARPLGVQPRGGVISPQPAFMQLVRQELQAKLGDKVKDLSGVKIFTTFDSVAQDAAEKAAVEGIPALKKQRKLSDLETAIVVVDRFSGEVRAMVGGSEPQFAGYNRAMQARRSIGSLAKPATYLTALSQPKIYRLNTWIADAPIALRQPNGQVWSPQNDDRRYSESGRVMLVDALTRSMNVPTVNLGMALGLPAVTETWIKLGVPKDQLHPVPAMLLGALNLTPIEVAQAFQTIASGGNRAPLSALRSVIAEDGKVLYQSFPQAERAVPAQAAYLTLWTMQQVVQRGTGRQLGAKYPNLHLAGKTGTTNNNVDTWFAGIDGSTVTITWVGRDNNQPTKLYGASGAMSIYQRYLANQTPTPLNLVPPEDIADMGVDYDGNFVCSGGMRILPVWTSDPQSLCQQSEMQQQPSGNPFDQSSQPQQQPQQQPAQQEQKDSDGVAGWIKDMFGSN

Q: How did the MIC [1] turn out when `Nc1nc(/C(=N/O)C(=O)N[C@H]2Cc3cccc(C(=O)O)c3OB2O)cs1` [Example 6, (R,Z)-3-(2-(2-aminothiazol-4-yl)-2-(hydroxyimino)acetamido)-2-hydroxy-3,4-dihydro-2H-benzo[e][1,2]oxaborinine-8-carboxylic Acid] was run?
A: Its MIC is under 64 µg/mL.

Q: What about the MIC [2] of the same compound?
A: Its MIC is 16 µg/mL.

Q: And the MIC [3]?
A: Its MIC is 16 µg/mL.

Q: What about the MIC [4] of the same compound?
A: The MIC was 16 µg/mL.

Q: And the MIC [5]?
A: The MIC was 16 µg/mL.

Q: And the “E. coli K12 PBP1b Potency” value (E. coli K12 PBP1b)?
A: The value was “C (C represents a potency of <64 μg/mL)”.
